One data set addresses T1, AChE (Electrophorus electricus, UniProt O42275).
T1 construct: native enzyme, Type V-S lyophilized powder, Sigma-Aldrich
Put plainly: Ellman colorimetric assay. Format: biochemical. In general terms: Ellman's reagent forms a yellow product with free thiols.

The nature of data set [1]: in vitro. On the set-up: species or system SH-SY5Y, LO2; MTT cytotoxicity, absorbance at 570 nm. The note with it: human, hepg2; read-out: ^a IC50 ± SD (μM) / HepG2. Here is the method:
(§1) The cell lines present in this study were purchased from the China Center for Type Collection (CCTCC, China). For cytotoxicity assay, HT-22, BV2, SH-SY5Y, HepG2, and LO2 cells were incubated in 96-well plates at the density of 5 × 10³ per well. After incubation for 12 h at 37°C, the tested compounds with the required concentrations were added to the corresponding wells and continuously incubated for 24 h at 37°C. Then, the prepared MTT (3-[4,5-dimethyl-2-thiazolyl]-2,5-diphenyl-2H-tetrazolium bromide) solution was added to each well and co-incubated for another 4 h at 37°C. Then, the supernatant was removed, and 100 μl DMSO was added to each well. The OD value of each well was detected at 570 nm using a microplate reader (Bio-Rad Laboratories, CA, United States). The IC50 values were calculated using IBM SPSS Statistics 25.0 software. All experiments were performed in triplicate, and the results were shown as the mean ± SD. In order to further evaluate the applicability of the compounds with dibenzyl groups for neurological diseases, we also tested the cytotoxicity of the selected compounds (2f, 2h, 2j, 2m, 2o-2r, 2t, and 2u) bearing little toxicity on HT-22 cells, microglia cell line BV2, and human neuroblastoma cell line SH-SY5Y, which are widely used in the study of neurological diseases. […] In view of some carbamate-based ChE inhibitors reported to be hepatotoxic, we further performed the preliminary evaluation of the hepatotoxicity of the selected compounds on human normal liver cell line LO2 and human hepatocellular carcinoma cell line HepG2.

Data set [2] is described as follows: in vitro. On the set-up: species or system SH-SY5Y, HepG2; MTT cytotoxicity, absorbance at 570 nm. The note with it: human, lo2 cells; read-out: ^a IC50 ± SD (μM) / LO2. The protocol: as §1
Data set [3] in a line: in vitro. The note with it: mouse, read-out: IC50 ± SD / HT-22 ^a. Also noted: MTT cytotoxicity, absorbance at 570 nm, HT-22 mouse hippocampal neuronal cells. Here is the method:
The cell lines present in this study were purchased from the China Center for Type Collection (CCTCC, China). For cytotoxicity assay, HT-22, BV2, SH-SY5Y, HepG2, and LO2 cells were incubated in 96-well plates at the density of 5 × 10³ per well. After incubation for 12 h at 37°C, the tested compounds with the required concentrations were added to the corresponding wells and continuously incubated for 24 h at 37°C. Then, the prepared MTT (3-[4,5-dimethyl-2-thiazolyl]-2,5-diphenyl-2H-tetrazolium bromide) solution was added to each well and co-incubated for another 4 h at 37°C. Then, the supernatant was removed, and 100 μl DMSO was added to each well. The OD value of each well was detected at 570 nm using a microplate reader (Bio-Rad Laboratories, CA, United States). The IC50 values were calculated using IBM SPSS Statistics 25.0 software. All experiments were performed in triplicate, and the results were shown as the mean ± SD. In order to explore the applicability of the synthesized CTDs in neurological diseases, the neuronal cytotoxicity of the synthesized compounds was evaluated on mouse hippocampal neuronal cell line HT-22. […] In view of these CTDs endowed strong inhibition efficacy on BuChE, we preliminarily evaluated their safety range by comparing their IC50 values on cytotoxicity and BuChE inhibitory activity. […] Therefore, the series of compounds with dibenzyl groups, especially compounds bearing ring carbon alkyl chains (2f-2h) and tertiary amine residues (2j-2u) with little cytotoxicity on HT-22, can be considered as potential lead building blocks for further structure optimization to develop novel effective agents against neurological diseases.

Data set [4] deals with T2, BuChE (Equus caballus, UniProt P81908). Put plainly: Ellman colorimetric assay. The data set is classed as biochemical. Also noted: gene BCHE; native enzyme from equine serum, purchased from Sigma-Aldrich.
T2 sequence (P81908 whole entry): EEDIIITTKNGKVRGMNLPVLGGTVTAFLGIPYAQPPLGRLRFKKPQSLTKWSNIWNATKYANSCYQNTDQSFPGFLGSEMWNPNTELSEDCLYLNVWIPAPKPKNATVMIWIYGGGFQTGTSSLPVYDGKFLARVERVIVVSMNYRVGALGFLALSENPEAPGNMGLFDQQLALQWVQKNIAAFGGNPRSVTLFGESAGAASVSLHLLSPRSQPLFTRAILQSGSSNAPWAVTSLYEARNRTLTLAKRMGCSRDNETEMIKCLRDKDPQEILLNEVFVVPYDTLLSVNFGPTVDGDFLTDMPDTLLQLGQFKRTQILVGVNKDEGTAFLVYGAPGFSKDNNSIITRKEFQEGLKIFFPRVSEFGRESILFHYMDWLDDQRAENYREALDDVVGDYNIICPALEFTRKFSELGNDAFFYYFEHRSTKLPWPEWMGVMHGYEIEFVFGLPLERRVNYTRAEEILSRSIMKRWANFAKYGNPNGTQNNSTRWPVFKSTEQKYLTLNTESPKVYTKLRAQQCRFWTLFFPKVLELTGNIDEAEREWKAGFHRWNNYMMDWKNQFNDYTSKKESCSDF
A short description of data set [5]: in vitro. On the set-up: species or system LO2, HepG2; MTT cytotoxicity, absorbance at 570 nm. The note with it: human, sh-sy5y; read-out: ^a IC50 ± SD (μM) / SH-SY5Y. Here is the method: as §1
Data set [6] deals with T2, BuChE. Kind of data set: time-dependent Ellman assay, kobs analysis. Also noted: gene BCHE. The note with it: read-out: kc; equilibrium constant of reversible step before carbamylation; covalent.
The mark [7] stands for this setting: read-out: IC50 ± SD ^a / AChE ^a.
The mark [8] stands for this setting: ht-22 hippocampal neuronal cells.
The mark [9] stands for this setting: read-out: IC50 ± SD ^a / BuChE ^a.

Read-outs that look alike come from different tables or passages of the source.

T1 sequence (O42275 24-633): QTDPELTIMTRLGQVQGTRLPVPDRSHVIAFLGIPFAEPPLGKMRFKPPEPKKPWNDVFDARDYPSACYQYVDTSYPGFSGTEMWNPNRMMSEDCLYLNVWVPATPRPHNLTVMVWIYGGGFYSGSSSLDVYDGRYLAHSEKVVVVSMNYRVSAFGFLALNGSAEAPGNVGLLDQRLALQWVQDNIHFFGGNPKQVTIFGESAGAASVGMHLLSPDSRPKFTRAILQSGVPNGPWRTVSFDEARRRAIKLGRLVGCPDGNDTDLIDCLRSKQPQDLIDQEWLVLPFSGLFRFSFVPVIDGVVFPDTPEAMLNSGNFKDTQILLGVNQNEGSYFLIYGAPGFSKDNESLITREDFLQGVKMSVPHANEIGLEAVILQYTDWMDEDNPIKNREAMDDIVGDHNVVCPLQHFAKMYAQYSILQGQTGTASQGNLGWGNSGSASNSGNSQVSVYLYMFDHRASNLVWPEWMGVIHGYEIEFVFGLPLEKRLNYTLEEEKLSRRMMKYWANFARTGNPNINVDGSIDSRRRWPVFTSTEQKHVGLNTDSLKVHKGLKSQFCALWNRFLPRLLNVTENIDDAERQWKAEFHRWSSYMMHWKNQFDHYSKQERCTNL

Consider `O=C(Oc1ccc2[nH]cc(CCN(Cc3ccccc3)Cc3ccccc3)c2c1)N1CCCC1` [2r, 3-(2-(dibenzylamino)ethyl)-1H-indol-5-yl pyrrolidine-1-carboxylate], for which the IC50 at AChE (read-out: IC50 ± SD / AChE ^a) was greater than 100 µM; on BuChE [4] (read-out: IC50 ± SD / BuChE ^a), 0.0205 ± 0.0017 µM. In addition, the CC50 at 24 h in the data set “in vitro [1]” was greater than 100 µM; in “in vitro [2]”, greater than 100 µM; in “in vitro [3]” (ht-22) it was 79.8 ± 5.36 µM; in the data set “in vitro [5]”, greater than 100 µM.
As to `O=C(Oc1ccc2[nH]cc(CCN(Cc3ccccc3)Cc3ccccc3)c2c1)N1CCCCCC1` [2t, 3-(2-(dibenzylamino)ethyl)-1H-indol-5-yl azepane-1-carboxylate], the IC50 was greater than 100 µM at AChE (read-out: IC50 ± SD / AChE ^a) and 0.068 ± 0.00842 µM at BuChE [4] (read-out: IC50 ± SD / BuChE ^a). The CC50 at 24 h in the data set “in vitro [1]”, in “in vitro [2]” and in the data set “in vitro [3]” (ht-22) was greater than 100 µM in each case.
On to `O=C(Oc1ccc2[nH]cc(CCN(Cc3ccccc3)Cc3ccccc3)c2c1)N1CCOCC1` [2u, 3-(2-(dibenzylamino)ethyl)-1H-indol-5-yl morpholine-4-carboxylate], for which the figures for the IC50 on AChE (read-out: IC50 ± SD / AChE ^a) and at BuChE [4] (read-out: IC50 ± SD / BuChE ^a) were greater than 100 µM and 0.114 ± 0.00145 µM, respectively. Further, the CC50 at 24 h in “in vitro [1]” is greater than 100 µM; in “in vitro [2]”, greater than 100 µM; in “in vitro [3]” (ht-22), 78.7 ± 3.79 µM; in “in vitro [5]”, greater than 100 µM.
For the compound `CCCCCNC(=O)Oc1ccc2[nH]cc(CCNCc3ccccc3)c2c1` [3c, 3-(2-(benzylamino)ethyl)-1H-indol-5-yl pentylcarbamate], at BuChE [6], the KI (inactivation) was 0.0737 µM. The IC50 is 1.13 µM at AChE (setting [7]) and 0.0239 ± 0.0029 µM on BuChE [4] (setting [9]). Moreover, in the data set “in vitro [3]” (setting [8]), the CC50 at 24 h is 10.6 ± 0.24 µM.
In the case of `O=C(NC1CC1)Oc1ccc2[nH]cc(CCNCc3ccccc3)c2c1` [3f, 3-(2-(benzylamino)ethyl)-1H-indol-5-yl cyclopropylcarbamate], at BuChE [6], the KI (inactivation) worked out at 0.00576 µM. Also, the IC50 came out at 3.17 µM on AChE (setting [7]) and 0.0157 ± 0.0013 µM on BuChE [4] (setting [9]). In addition, the CC50 at 24 h in the data set “in vitro [3]” (setting [8]) is 15 ± 1.17 µM.
The corresponding values for `O=C(Oc1ccc2[nH]cc(CCNCc3ccccc3)c2c1)N1CCCCC1` [3s, 3-(2-(benzylamino)ethyl)-1H-indol-5-yl piperidine-1-carboxylate] are 0.00508 µM, 9.08 µM, 0.0339 ± 0.00214 µM and 13.8 ± 0.91 µM.
In the case of `O=C(Oc1ccc2[nH]cc(CCNCc3ccccc3)c2c1)N1CCOCC1` [3u, 3-(2-(benzylamino)ethyl)-1H-indol-5-yl morpholine-4-carboxylate], the values for the IC50 on AChE (setting [7]) and at BuChE [4] (setting [9]) were greater than 100 µM and 0.112 ± 0.00737 µM, respectively. Also, the CC50 at 24 h in the data set “in vitro [3]” (setting [8]) was 51.3 ± 2.55 µM.
Consider `CCCCCNC(=O)Oc1ccc2[nH]cc(CCN)c2c1` [4c, 3-(2-aminoethyl)-1H-indol-5-yl pentylcarbamate], for which the IC50 on AChE (setting [7]) was greater than 100 µM; at BuChE [4] (setting [9]), 0.121 ± 0.00838 µM. Also, the CC50 at 24 h in “in vitro [3]” (setting [8]) was greater than 100 µM.
As to `CCCCCCNC(=O)Oc1ccc2[nH]cc(CCN)c2c1` [4d, 3-(2-aminoethyl)-1H-indol-5-yl hexylcarbamate], the IC50 at AChE (setting [7]) is greater than 100 µM; at BuChE [4] (setting [9]), 0.0277 ± 0.00204 µM. In addition, the CC50 at 24 h in the data set “in vitro [3]” (setting [8]) turned out to be 25.2 ± 1.37 µM.
Regarding `CCCCCCCNC(=O)Oc1ccc2[nH]cc(CCN)c2c1` [4e, 3-(2-aminoethyl)-1H-indol-5-yl heptylcarbamate], the KI (inactivation) at BuChE [6] stood at 0.00302 µM. The IC50 at AChE (ATCI substrate, […] min preincubation […] °C, pH […], read-out: IC50 ± SD ^a / AChE ^a) was greater than 100 µM; at BuChE [4] (BTCI substrate, […] min preincubation […] °C, pH […], pseudo-irreversible carbamate, covalent, read-out: IC50 ± SD ^a / BuChE ^a), 0.0101 ± 0.00083 µM. Further, in “in vitro [3]” (setting [8]), the CC50 at 24 h came to 26.1 ± 2.29 µM.

Source of the values: paper PMC9742383, “From tryptamine to the discovery of efficient multi-target directed ligands against cholinesterase-associated neurodegenerative disorders” (Frontiers in Pharmacology, 2022).
